Assay results published in patent US20150031572A1, “MEANS AND METHODS FOR ASSESSING NEURONAL TOXICITY” (priority 2012, published 2015).
Structures can show the parent of a compound that is named as a salt. Marks after values point to notes of the source that are not given here.

Test: Plasma metabolite profiling (GC-MS, LC-MS, SPE-LC-MS) of rats dosed once daily over 28 days; treatment ratios versus untreated control
Assay type: in vivo, rat
Conditions: plasma, female rats, day 28, high dose
Procedure: A group of each 5 male and female rats was dosed once daily with the indicated compounds (see Table 10, below for compounds, applied doses and administration details) over 28 days.
Each dose group in the studies consisted of five rats per sex. Additional groups of each 5 male and female animals served as controls. Before starting the treatment period, animals, which were 62-64 days old when supplied, were acclimatized to the housing and environmental conditions for 7 days. All animals of the animal population were kept under the same constant temperature (20-24±3° C.) and the same constant humidity (30-70%). The animals of the animal population were fed ad libitum. The food to be used was essentially free of chemical or microbial contaminants. Drinking water was also offered ad libitum. Accordingly, the water was free of chemical and microbial contaminants as laid down in the European Drinking Water Directive 98/83/EG. The illumination period was 12 hours light followed by 12 hours darkness (12 hours light, from 6:00 to 18:00, and 12 hours darkness, from 18:00 to 6:00). […] The test substances (compounds) in the Tables 1 to 9 below were dosed and administered as described in the Table 10 above.
In the morning of day 7, 14, and 28, blood was taken from the retro-orbital venous plexus from fasted anaesthetized animals. From each animal, 1 ml of blood was collected with EDTA as anticoagulant. The samples were centrifuged for generation of plasma. All plasma samples were covered with a N2 atmosphere and then stored at −80° C. until analysis.
For mass spectrometry-based metabolite profiling analyses plasma samples were extracted and a polar and a non-polar (lipid) fraction was obtained. For GC-MS analysis, the non-polar fraction was treated with methanol under acidic conditions to yield the fatty acid methyl esters. Both fractions were further derivatised with O-methyl-hydroxyamine hydrochloride and pyridine to convert Oxogroups to O-methyloximes and subsequently with a silylating agent before analysis. In LC-MS analysis, both fractions were reconstituted in appropriate solvent mixtures. HPLC was performed by gradient elution on reversed phase separation columns. Mass spectrometric detection which allows target and high sensitivity MRM (Multiple Reaction Monitoring) profiling in parallel to a full screen analysis was applied as described in WO2003073464.
Steroids and their metabolites were measured by online SPE-LC-MS (Solid phase extraction-LC-MS).
Following comprehensive analytical validation steps, the data for each analyte were normalized against data from pool samples. These samples were run in parallel through the whole process to account for process variability. The significance of treatment group values specific for sex, treatment duration and metabolite was determined by comparing means of the treated groups to the means of the respective untreated control groups using WELCH-test and quantified with treatment ratios versus control and p-values.
The identification of the most important biomarkers per toxicity pattern was done by a ranking of the analytes in the tables below. Therefore the metabolic changes in reference treatments of a given pattern (shown in the table) were compared with changes of the same metabolite in other unrelated treatments. […] The maximum absolute value of the respective TVALUE was taken to indicate the most important metabolite for the pattern.

**Q.** For `C#C[C@]1(O)CC[C@H]2[C@@H]3CCc4cc(O)ccc4[C@H]3CC[C@@]21C` [17-alpha-Ethynylestradiol], which “3-Methoxytyrosine, ratio versus control” value (Table 6a) is on record?
**A.** 1.29*

**Q.** What about the “Isoleucine, ratio versus control” value (Table 6a) of the same compound?
**A.** 1.07

**Q.** And the “4-Hydroxy-3-methoxyphenylglycol (HMPG), ratio versus control” value (Table 6b)?
**A.** 0.7*

**Q.** What about the “14-Methylhexadecanoic acid, ratio versus control” value (Table 6b) of the same compound?
**A.** 0.86*

**Q.** What about the “16-Methylheptadecanoic acid, ratio versus control” value (Table 6b) of the same compound?
**A.** 0.29*

**Q.** And the “17-Methyloctadecanoic acid, ratio versus control” value (Table 6b)?
**A.** 0.46*

**Q.** And the “Ceramide (d18:1,C24:1), ratio versus control” value (Table 6b)?
**A.** 0.6*

**Q.** What about the “Choline plasmalogen No 03, ratio versus control” value (Table 6b) of the same compound?
**A.** 0.38*

**Q.** What about the “Homovanillic acid (HVA), ratio versus control” value (Table 6b) of the same compound?
**A.** 0.47*

**Q.** And the “Isopalmitic acid (C16:0), ratio versus control” value (Table 6b)?
**A.** 0.51*

**Q.** What about the “Lactate, ratio versus control” value (Table 6b) of the same compound?
**A.** 0.99

**Q.** And the “Myristic acid (C14:0), ratio versus control” value (Table 6b)?
**A.** 0.59*

**Q.** And the “Phosphatidylcholine (C16:0, C20:4), ratio versus control” value (Table 6b)?
**A.** 0.78*

**Q.** And the “Phosphatidylcholine No 04, ratio versus control” value (Table 6b)?
**A.** 0.39*

**Q.** What about the “Pyruvate, ratio versus control” value (Table 6b) of the same compound?
**A.** 0.87*

**Q.** Which results are given for `CN1CCc2cccc3c2[C@H]1Cc1ccc(O)c(O)c1-3` [Apomorphine]?
**A.** Isoleucine, ratio versus control (Table 6a): 1.25*; 14-Methylhexadecanoic acid, ratio versus control (Table 6b): 0.83*; 16-Methylheptadecanoic acid, ratio versus control (Table 6b): 0.66*; 17-Methyloctadecanoic acid, ratio versus control (Table 6b): 0.73*; Ceramide (d18:1,C24:1), ratio versus control (Table 6b): 0.61*; Choline plasmalogen No 03, ratio versus control (Table 6b): 0.89*; Isopalmitic acid (C16:0), ratio versus control (Table 6b): 0.93; Lactate, ratio versus control (Table 6b): 0.9; Myristic acid (C14:0), ratio versus control (Table 6b): 0.9*; Phosphatidylcholine (C16:0, C20:4), ratio versus control (Table 6b): 0.88*; Phosphatidylcholine No 04, ratio versus control (Table 6b): 0.88*; Pyruvate, ratio versus control (Table 6b): 0.33*; 3-Hydroxybutyrate, ratio versus control (Table 8c): 1.41 *; Isoleucine, ratio versus control (Table 8c): 1.25 *; TAG (C16:0,C18:2), ratio versus control (Table 8c): 2.31 *; 16-Methylheptadecanoic acid, ratio versus control (Table 8d): 0.66 *; 17-Methyloctadecanoic acid, ratio versus control (Table 8d): 0.73 *; Ceramide (d18:1,C24:1), ratio versus control (Table 8d): 0.61 *; Phosphatidylcholine (C16:0, C20:4), ratio versus control (Table 8d): 0.88 *; Phosphatidylcholine (C18:0, C20:3), ratio versus control (Table 8d): 0.98 *; Pyruvate, ratio versus control (Table 8d): 0.33 *

**Q.** With `CC(C)C[C@H]1C(=O)N2CCC[C@H]2[C@]2(O)O[C@](NC(=O)[C@@H]3C=C4c5cccc6[nH]c(Br)c(c56)C[C@H]4N(C)C3)(C(C)C)C(=O)N12` [Bromocriptine Mesylate] as the compound, how does the “Isoleucine, ratio versus control” value (Table 6a) read?
**A.** 1.14*

**Q.** What about the “14-Methylhexadecanoic acid, ratio versus control” value (Table 6b) of the same compound?
**A.** 0.85*

**Q.** And the “16-Methylheptadecanoic acid, ratio versus control” value (Table 6b)?
**A.** 0.51*

**Q.** And the “17-Methyloctadecanoic acid, ratio versus control” value (Table 6b)?
**A.** 0.67*

**Q.** And the “Ceramide (d18:1,C24:1), ratio versus control” value (Table 6b)?
**A.** 0.6*

**Q.** And the “Choline plasmalogen No 03, ratio versus control” value (Table 6b)?
**A.** 0.62*

**Q.** What about the “Isopalmitic acid (C16:0), ratio versus control” value (Table 6b) of the same compound?
**A.** 0.62*

**Q.** What about the “Lactate, ratio versus control” value (Table 6b) of the same compound?
**A.** 0.47*

**Q.** And the “Myristic acid (C14:0), ratio versus control” value (Table 6b)?
**A.** 0.84

**Q.** What about the “Phosphatidylcholine (C16:0, C20:4), ratio versus control” value (Table 6b) of the same compound?
**A.** 0.94*

**Q.** And the “Phosphatidylcholine No 04, ratio versus control” value (Table 6b)?
**A.** 0.47*

**Q.** What about the “Pyruvate, ratio versus control” value (Table 6b) of the same compound?
**A.** 0.71*

**Q.** And the “3-Hydroxybutyrate, ratio versus control” value (Table 8c)?
**A.** 1.13^

**Q.** What about the “Isoleucine, ratio versus control” value (Table 8c) of the same compound?
**A.** 1.14 *

**Q.** And the “TAG (C16:0,C18:2), ratio versus control” value (Table 8c)?
**A.** 1.2 *

**Q.** What about the “16-Methylheptadecanoic acid, ratio versus control” value (Table 8d) of the same compound?
**A.** 0.51 *

**Q.** What about the “17-Methyloctadecanoic acid, ratio versus control” value (Table 8d) of the same compound?
**A.** 0.67 *

**Q.** What about the “Ceramide (d18:1,C24:1), ratio versus control” value (Table 8d) of the same compound?
**A.** 0.6 *

**Q.** And the “Phosphatidylcholine (C16:0, C20:4), ratio versus control” value (Table 8d)?
**A.** 0.94 *

**Q.** What about the “Phosphatidylcholine (C18:0, C20:3), ratio versus control” value (Table 8d) of the same compound?
**A.** 0.71 *

**Q.** And the “Pyruvate, ratio versus control” value (Table 8d)?
**A.** 0.71 *
